Counter-ions that a name gives are not always drawn.
Test: Solid-state stability (HPLC purity and XRPD crystal form on storage)
Format: physicochemical
Conditions: 25°C /60%RH/open, 1 week, HPLC
Description: About 10 mg of each solid form of the compound was weighed and added to the HPLC vial, respectively, the bottleneck was sealed with a sealing film, and 10 small holes were made on the film. The vial was placed in 25° C/60% RH and 40° C/75% RH environment for 4 weeks, samples were taken in the 1st week, the 2rd week and the 4th week respectively, the purity (by HPLC analysis) and crystal form (by X ray powder diffraction analysis) of the sample were investigated. […]

Row | Structure (SMILES) | Purity (area %)
1 | CNCc1ccc(NS(=O)(=O)c2ccsc2)c(-c2ccco2)c1 [benzene sulfonate crystal form J, N-(2-(furan-2-yl)-4-((methylamino)methyl)-phenyl)thiophene-3-sulfonamide] | 98.87
2 | CNCc1ccc(NS(=O)(=O)c2ccsc2)c(-c2ccco2)c1 [fumarate crystal form B, N-(2-(furan-2-yl)-4-((methylamino)methyl)phenyl)thiophene-3-sulfonamide] | 98.53
3 | CNCc1ccc(NS(=O)(=O)c2ccsc2)c(-c2ccco2)c1 [hydrochloride crystal form C, N-(2-(furan-2-yl)-4-((methylamino)methyl)phenyl)thiophene-3-sulfonamide] | 98.97
4 | CNCc1ccc(NS(=O)(=O)c2ccsc2)c(-c2ccco2)c1 [malate crystal form F, N-(2-(furan-2-yl)-4-((methylamino)methyl)phenyl)thiophene-3-sulfonamide] | 98.72

Next, values leading:

Row | Purity (area %) | Structure (SMILES)
5 | 98.92 | CNCc1ccc(NS(=O)(=O)c2ccsc2)c(-c2ccco2)c1 [succinate crystal form E, N-(2-(furan-2-yl)-4-((methylamino)methyl)phenyl)thiophene-3-sulfonamide]
6 | 98.74 | CNCc1ccc(NS(=O)(=O)c2ccsc2)c(-c2ccco2)c1 [sulfate crystal form D, N-(2-(furan-2-yl)-4-((methylamino)methyl)phenyl)thiophene-3-sulfonamide]

Same assay, conditions: 25°C /60%RH/open, 2 weeks, HPLC

Row | Structure (SMILES) | Purity (area %)
7 | CNCc1ccc(NS(=O)(=O)c2ccsc2)c(-c2ccco2)c1 [benzene sulfonate crystal form J, N-(2-(furan-2-yl)-4-((methylamino)methyl)-phenyl)thiophene-3-sulfonamide] | 98.85
8 | CNCc1ccc(NS(=O)(=O)c2ccsc2)c(-c2ccco2)c1 [fumarate crystal form B, N-(2-(furan-2-yl)-4-((methylamino)methyl)phenyl)thiophene-3-sulfonamide] | 98.47
9 | CNCc1ccc(NS(=O)(=O)c2ccsc2)c(-c2ccco2)c1 [hydrochloride crystal form C, N-(2-(furan-2-yl)-4-((methylamino)methyl)phenyl)thiophene-3-sulfonamide] | 98.92
10 | CNCc1ccc(NS(=O)(=O)c2ccsc2)c(-c2ccco2)c1 [malate crystal form F, N-(2-(furan-2-yl)-4-((methylamino)methyl)phenyl)thiophene-3-sulfonamide] | 98.7

More lines, now with the values ahead:

Row | Purity (area %) | Structure (SMILES)
11 | 98.86 | CNCc1ccc(NS(=O)(=O)c2ccsc2)c(-c2ccco2)c1 [succinate crystal form E, N-(2-(furan-2-yl)-4-((methylamino)methyl)phenyl)thiophene-3-sulfonamide]
12 | 98.65 | CNCc1ccc(NS(=O)(=O)c2ccsc2)c(-c2ccco2)c1 [sulfate crystal form D, N-(2-(furan-2-yl)-4-((methylamino)methyl)phenyl)thiophene-3-sulfonamide]

Same assay, conditions: 25°C /60%RH/open, 4 weeks, HPLC

Row | Structure (SMILES) | Purity (area %)
13 | CNCc1ccc(NS(=O)(=O)c2ccsc2)c(-c2ccco2)c1 [benzene sulfonate crystal form J, N-(2-(furan-2-yl)-4-((methylamino)methyl)-phenyl)thiophene-3-sulfonamide] | 98.82
14 | CNCc1ccc(NS(=O)(=O)c2ccsc2)c(-c2ccco2)c1 [fumarate crystal form B, N-(2-(furan-2-yl)-4-((methylamino)methyl)phenyl)thiophene-3-sulfonamide] | 98.57
15 | CNCc1ccc(NS(=O)(=O)c2ccsc2)c(-c2ccco2)c1 [hydrochloride crystal form C, N-(2-(furan-2-yl)-4-((methylamino)methyl)phenyl)thiophene-3-sulfonamide] | 98.87
16 | CNCc1ccc(NS(=O)(=O)c2ccsc2)c(-c2ccco2)c1 [malate crystal form F, N-(2-(furan-2-yl)-4-((methylamino)methyl)phenyl)thiophene-3-sulfonamide] | 98.79

Results, then the compound that gave them:

Row | Purity (area %) | Structure (SMILES)
17 | 98.94 | CNCc1ccc(NS(=O)(=O)c2ccsc2)c(-c2ccco2)c1 [succinate crystal form E, N-(2-(furan-2-yl)-4-((methylamino)methyl)phenyl)thiophene-3-sulfonamide]
18 | 98.78 | CNCc1ccc(NS(=O)(=O)c2ccsc2)c(-c2ccco2)c1 [sulfate crystal form D, N-(2-(furan-2-yl)-4-((methylamino)methyl)phenyl)thiophene-3-sulfonamide]

Same assay, conditions: 40°C /75%RH/open, 1 week, HPLC

Row | Structure (SMILES) | Purity (area %)
19 | CNCc1ccc(NS(=O)(=O)c2ccsc2)c(-c2ccco2)c1 [benzene sulfonate crystal form J, N-(2-(furan-2-yl)-4-((methylamino)methyl)-phenyl)thiophene-3-sulfonamide] | 98.87
20 | CNCc1ccc(NS(=O)(=O)c2ccsc2)c(-c2ccco2)c1 [fumarate crystal form B, N-(2-(furan-2-yl)-4-((methylamino)methyl)phenyl)thiophene-3-sulfonamide] | 98.4
21 | CNCc1ccc(NS(=O)(=O)c2ccsc2)c(-c2ccco2)c1 [hydrochloride crystal form C, N-(2-(furan-2-yl)-4-((methylamino)methyl)phenyl)thiophene-3-sulfonamide] | 99.02
22 | CNCc1ccc(NS(=O)(=O)c2ccsc2)c(-c2ccco2)c1 [malate crystal form F, N-(2-(furan-2-yl)-4-((methylamino)methyl)phenyl)thiophene-3-sulfonamide] | 98.74

More lines, now with the values ahead:

Row | Purity (area %) | Structure (SMILES)
23 | 98.92 | CNCc1ccc(NS(=O)(=O)c2ccsc2)c(-c2ccco2)c1 [succinate crystal form E, N-(2-(furan-2-yl)-4-((methylamino)methyl)phenyl)thiophene-3-sulfonamide]
24 | 98.76 | CNCc1ccc(NS(=O)(=O)c2ccsc2)c(-c2ccco2)c1 [sulfate crystal form D, N-(2-(furan-2-yl)-4-((methylamino)methyl)phenyl)thiophene-3-sulfonamide]

Same assay, conditions: 40°C /75%RH/open, 2 weeks, HPLC

Row | Structure (SMILES) | Purity (area %)
25 | CNCc1ccc(NS(=O)(=O)c2ccsc2)c(-c2ccco2)c1 [benzene sulfonate crystal form J, N-(2-(furan-2-yl)-4-((methylamino)methyl)-phenyl)thiophene-3-sulfonamide] | 98.82
26 | CNCc1ccc(NS(=O)(=O)c2ccsc2)c(-c2ccco2)c1 [fumarate crystal form B, N-(2-(furan-2-yl)-4-((methylamino)methyl)phenyl)thiophene-3-sulfonamide] | 98.5
27 | CNCc1ccc(NS(=O)(=O)c2ccsc2)c(-c2ccco2)c1 [hydrochloride crystal form C, N-(2-(furan-2-yl)-4-((methylamino)methyl)phenyl)thiophene-3-sulfonamide] | 98.9
28 | CNCc1ccc(NS(=O)(=O)c2ccsc2)c(-c2ccco2)c1 [malate crystal form F, N-(2-(furan-2-yl)-4-((methylamino)methyl)phenyl)thiophene-3-sulfonamide] | 98.75

Continued, values first:

Row | Purity (area %) | Structure (SMILES)
29 | 98.72 | CNCc1ccc(NS(=O)(=O)c2ccsc2)c(-c2ccco2)c1 [succinate crystal form E, N-(2-(furan-2-yl)-4-((methylamino)methyl)phenyl)thiophene-3-sulfonamide]
30 | 98.65 | CNCc1ccc(NS(=O)(=O)c2ccsc2)c(-c2ccco2)c1 [sulfate crystal form D, N-(2-(furan-2-yl)-4-((methylamino)methyl)phenyl)thiophene-3-sulfonamide]

Same assay, conditions: 40°C /75%RH/open, 4 weeks, HPLC

Row | Structure (SMILES) | Purity (area %)
31 | CNCc1ccc(NS(=O)(=O)c2ccsc2)c(-c2ccco2)c1 [benzene sulfonate crystal form J, N-(2-(furan-2-yl)-4-((methylamino)methyl)-phenyl)thiophene-3-sulfonamide] | 98.79
32 | CNCc1ccc(NS(=O)(=O)c2ccsc2)c(-c2ccco2)c1 [fumarate crystal form B, N-(2-(furan-2-yl)-4-((methylamino)methyl)phenyl)thiophene-3-sulfonamide] | 98.52
33 | CNCc1ccc(NS(=O)(=O)c2ccsc2)c(-c2ccco2)c1 [hydrochloride crystal form C, N-(2-(furan-2-yl)-4-((methylamino)methyl)phenyl)thiophene-3-sulfonamide] | 99
34 | CNCc1ccc(NS(=O)(=O)c2ccsc2)c(-c2ccco2)c1 [malate crystal form F, N-(2-(furan-2-yl)-4-((methylamino)methyl)phenyl)thiophene-3-sulfonamide] | 98.68

Second part, the compound after the results:

Row | Purity (area %) | Structure (SMILES)
35 | 98.98 | CNCc1ccc(NS(=O)(=O)c2ccsc2)c(-c2ccco2)c1 [succinate crystal form E, N-(2-(furan-2-yl)-4-((methylamino)methyl)phenyl)thiophene-3-sulfonamide]
36 | 98.78 | CNCc1ccc(NS(=O)(=O)c2ccsc2)c(-c2ccco2)c1 [sulfate crystal form D, N-(2-(furan-2-yl)-4-((methylamino)methyl)phenyl)thiophene-3-sulfonamide]

Same assay, conditions: starting sample before storage, HPLC

Row | Structure (SMILES) | Initial purity (area %)
37 | CNCc1ccc(NS(=O)(=O)c2ccsc2)c(-c2ccco2)c1 [benzene sulfonate crystal form J, N-(2-(furan-2-yl)-4-((methylamino)methyl)-phenyl)thiophene-3-sulfonamide] | 98.87
38 | CNCc1ccc(NS(=O)(=O)c2ccsc2)c(-c2ccco2)c1 [fumarate crystal form B, N-(2-(furan-2-yl)-4-((methylamino)methyl)phenyl)thiophene-3-sulfonamide] | 98.55
39 | CNCc1ccc(NS(=O)(=O)c2ccsc2)c(-c2ccco2)c1 [hydrochloride crystal form C, N-(2-(furan-2-yl)-4-((methylamino)methyl)phenyl)thiophene-3-sulfonamide] | 99.02
40 | CNCc1ccc(NS(=O)(=O)c2ccsc2)c(-c2ccco2)c1 [malate crystal form F, N-(2-(furan-2-yl)-4-((methylamino)methyl)phenyl)thiophene-3-sulfonamide] | 98.72

Further lines, results first:

Row | Initial purity (area %) | Structure (SMILES)
41 | 98.82 | CNCc1ccc(NS(=O)(=O)c2ccsc2)c(-c2ccco2)c1 [succinate crystal form E, N-(2-(furan-2-yl)-4-((methylamino)methyl)phenyl)thiophene-3-sulfonamide]
42 | 98.77 | CNCc1ccc(NS(=O)(=O)c2ccsc2)c(-c2ccco2)c1 [sulfate crystal form D, N-(2-(furan-2-yl)-4-((methylamino)methyl)phenyl)thiophene-3-sulfonamide]

Test: Hygroscopicity by dynamic moisture absorption (DVS)
Format: physicochemical
Conditions: DVS, 0% RH-95% RH adsorption curve, 25°C/80% RH
Description: Dynamic moisture adsorption (DVS) analysis: the instrument is a DVS Intrinsic produced by SMS company (Surface Measurement Systems); temperature, 25° C.; carrier gas, flow rate: nitrogen, 200 mL/min; mass change per unit time: 0.002%/min; relative humidity range: 0%RH-95%RH.
Dynamic moisture absorption (DVS) was used to test their hygroscopicity.

Row | Structure (SMILES) | moisture adsorption [%]
43 | CNCc1ccc(NS(=O)(=O)c2ccsc2)c(-c2ccco2)c1 [fumarate crystal form B, N-(2-(furan-2-yl)-4-((methylamino)methyl)phenyl)thiophene-3-sulfonamide] | 0.2
44 | CNCc1ccc(NS(=O)(=O)c2ccsc2)c(-c2ccco2)c1 [hydrochloride crystal form C, N-(2-(furan-2-yl)-4-((methylamino)methyl)phenyl)thiophene-3-sulfonamide] | 5.5
45 | CNCc1ccc(NS(=O)(=O)c2ccsc2)c(-c2ccco2)c1 [malate crystal form F, N-(2-(furan-2-yl)-4-((methylamino)methyl)phenyl)thiophene-3-sulfonamide] | 1.4

Continued, values first:

Row | moisture adsorption [%] | Structure (SMILES)
46 | 0.6 | CNCc1ccc(NS(=O)(=O)c2ccsc2)c(-c2ccco2)c1 [succinate crystal form E, N-(2-(furan-2-yl)-4-((methylamino)methyl)phenyl)thiophene-3-sulfonamide]
47 | 1.3 | CNCc1ccc(NS(=O)(=O)c2ccsc2)c(-c2ccco2)c1 [sulfate crystal form D, N-(2-(furan-2-yl)-4-((methylamino)methyl)phenyl)thiophene-3-sulfonamide]

Same assay, conditions: criteria of 2015 edition of the Chinese Pharmacopoeia (Guidelines for Drug Hygroscopicity Test); 25°C/80% RH

Row | Structure (SMILES) | hygroscopicity classification
48 | CNCc1ccc(NS(=O)(=O)c2ccsc2)c(-c2ccco2)c1 [fumarate crystal form B, N-(2-(furan-2-yl)-4-((methylamino)methyl)phenyl)thiophene-3-sulfonamide] | slightly hygroscopic
49 | CNCc1ccc(NS(=O)(=O)c2ccsc2)c(-c2ccco2)c1 [hydrochloride crystal form C, N-(2-(furan-2-yl)-4-((methylamino)methyl)phenyl)thiophene-3-sulfonamide] | hygroscopic
50 | CNCc1ccc(NS(=O)(=O)c2ccsc2)c(-c2ccco2)c1 [malate crystal form F, N-(2-(furan-2-yl)-4-((methylamino)methyl)phenyl)thiophene-3-sulfonamide] | slightly hygroscopic

The next lines start with the values.

Row | hygroscopicity classification | Structure (SMILES)
51 | slightly hygroscopic | CNCc1ccc(NS(=O)(=O)c2ccsc2)c(-c2ccco2)c1 [succinate crystal form E, N-(2-(furan-2-yl)-4-((methylamino)methyl)phenyl)thiophene-3-sulfonamide]
52 | slightly hygroscopic | CNCc1ccc(NS(=O)(=O)c2ccsc2)c(-c2ccco2)c1 [sulfate crystal form D, N-(2-(furan-2-yl)-4-((methylamino)methyl)phenyl)thiophene-3-sulfonamide]

From EP4635952A1, “SOLID FORM OF N-SUBSTITUTED PHENYLSULFONAMIDE COMPOUND” (Shanghai Leado Pharmatech Co. Ltd., priority 2022, dated 2024)
